In article PMC4685510, “A Cell Biologist’s Field Guide to Aurora Kinase Inhibitors” (Frontiers in Oncology, 2015):

How the values were obtained:
Assay in all cases: biochemical
Type in all cases: biochemical
[1] = biological target: T1, 363 human kinases (including Aurora A/B/C) (Homo sapiens, UniProt P29323); conditions: EPHB2, [ATP] 30 µM; for remaining activity at 0.1 µM: 100 nM; for remaining activity at 0.1 µM / remaining activity at 0.5 µM: read-out: % Enzyme Activity (relative to DMSO controls)
T1 sequence (P29323 19-1055): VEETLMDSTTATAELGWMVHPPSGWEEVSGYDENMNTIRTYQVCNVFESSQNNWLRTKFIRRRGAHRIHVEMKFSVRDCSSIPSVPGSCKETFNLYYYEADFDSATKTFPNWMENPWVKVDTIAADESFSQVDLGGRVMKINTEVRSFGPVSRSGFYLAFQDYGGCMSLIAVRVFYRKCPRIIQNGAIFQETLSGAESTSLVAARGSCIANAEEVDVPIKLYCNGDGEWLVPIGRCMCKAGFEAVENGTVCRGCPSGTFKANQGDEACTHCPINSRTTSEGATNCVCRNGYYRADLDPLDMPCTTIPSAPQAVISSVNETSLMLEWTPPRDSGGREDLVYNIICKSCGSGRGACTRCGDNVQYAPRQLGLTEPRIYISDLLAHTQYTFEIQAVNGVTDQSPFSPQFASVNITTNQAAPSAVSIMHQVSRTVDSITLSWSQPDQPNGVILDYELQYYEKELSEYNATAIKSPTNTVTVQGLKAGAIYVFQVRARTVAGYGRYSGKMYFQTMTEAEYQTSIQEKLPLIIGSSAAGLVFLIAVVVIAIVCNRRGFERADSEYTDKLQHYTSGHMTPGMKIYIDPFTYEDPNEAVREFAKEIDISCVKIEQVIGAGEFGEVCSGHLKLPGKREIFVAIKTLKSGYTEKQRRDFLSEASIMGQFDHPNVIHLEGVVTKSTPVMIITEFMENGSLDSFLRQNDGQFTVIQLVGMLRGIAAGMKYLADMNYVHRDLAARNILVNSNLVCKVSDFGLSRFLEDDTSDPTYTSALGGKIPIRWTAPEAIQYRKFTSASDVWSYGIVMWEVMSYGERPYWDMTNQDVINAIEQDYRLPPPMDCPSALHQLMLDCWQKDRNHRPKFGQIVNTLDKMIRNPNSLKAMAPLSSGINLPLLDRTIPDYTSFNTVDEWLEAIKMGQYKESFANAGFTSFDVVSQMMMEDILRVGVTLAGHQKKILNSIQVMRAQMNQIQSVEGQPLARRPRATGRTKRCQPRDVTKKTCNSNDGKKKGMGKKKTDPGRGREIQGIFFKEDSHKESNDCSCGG
Text: (§1) However, the Aurora A/B selectivity ratios derived from our in vitro and in vivo data can be compared to prioritize inhibitors.

[2] = biological target: T2, 363 human kinases (including Aurora A/B/C) (Homo sapiens, UniProt Q9NR20); conditions: DYRK4, [ATP] 2.5 µM; for remaining activity at 0.1 µM: 100 nM; for remaining activity at 0.1 µM / remaining activity at 0.5 µM: read-out: % Enzyme Activity (relative to DMSO controls)
T2 sequence (Q9NR20 1-520): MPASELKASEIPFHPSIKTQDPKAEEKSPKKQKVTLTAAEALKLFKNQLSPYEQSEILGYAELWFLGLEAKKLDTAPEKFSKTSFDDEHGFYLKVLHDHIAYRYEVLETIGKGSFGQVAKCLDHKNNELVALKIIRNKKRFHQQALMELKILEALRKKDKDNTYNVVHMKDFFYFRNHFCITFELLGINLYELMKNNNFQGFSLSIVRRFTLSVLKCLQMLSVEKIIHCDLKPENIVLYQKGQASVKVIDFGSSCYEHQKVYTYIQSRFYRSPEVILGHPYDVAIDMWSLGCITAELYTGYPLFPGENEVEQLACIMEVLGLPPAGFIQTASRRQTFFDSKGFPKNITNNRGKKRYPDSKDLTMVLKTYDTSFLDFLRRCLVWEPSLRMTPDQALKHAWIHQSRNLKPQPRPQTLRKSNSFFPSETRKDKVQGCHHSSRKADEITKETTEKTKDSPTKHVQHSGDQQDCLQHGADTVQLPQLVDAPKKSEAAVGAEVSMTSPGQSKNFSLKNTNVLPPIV
Text: as §1

[3] = biological target: T3, 363 human kinases (including Aurora A/B/C) (Homo sapiens, UniProt P35626); conditions: GRK3; for remaining activity at 0.1 µM: 100 nM; for remaining activity at 0.1 µM / remaining activity at 0.5 µM: read-out: % Enzyme Activity (relative to DMSO controls)
T3 sequence (P35626 1-688): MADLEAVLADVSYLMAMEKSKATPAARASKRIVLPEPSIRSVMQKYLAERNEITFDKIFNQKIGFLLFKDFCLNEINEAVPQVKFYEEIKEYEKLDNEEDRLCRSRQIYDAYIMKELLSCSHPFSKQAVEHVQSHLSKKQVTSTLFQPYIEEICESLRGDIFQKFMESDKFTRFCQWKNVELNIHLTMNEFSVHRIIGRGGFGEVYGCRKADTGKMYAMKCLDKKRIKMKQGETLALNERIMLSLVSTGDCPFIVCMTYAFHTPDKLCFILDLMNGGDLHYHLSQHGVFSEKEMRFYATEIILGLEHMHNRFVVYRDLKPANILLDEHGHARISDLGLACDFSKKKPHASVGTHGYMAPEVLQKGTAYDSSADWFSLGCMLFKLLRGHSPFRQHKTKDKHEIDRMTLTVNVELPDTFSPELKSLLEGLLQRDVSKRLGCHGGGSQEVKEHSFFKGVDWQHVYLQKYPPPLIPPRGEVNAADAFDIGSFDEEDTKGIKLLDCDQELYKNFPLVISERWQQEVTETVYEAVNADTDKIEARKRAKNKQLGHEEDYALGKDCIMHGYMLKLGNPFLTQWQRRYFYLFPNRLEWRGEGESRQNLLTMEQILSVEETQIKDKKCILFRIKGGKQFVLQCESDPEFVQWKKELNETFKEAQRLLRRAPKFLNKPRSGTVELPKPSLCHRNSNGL
Text: as §1

[4] = biological target: 363 human kinases (including Aurora A/B/C) (Homo sapiens, UniProt Q8NEV4); conditions: MYO3A; for remaining activity at 0.1 µM: 100 nM; for remaining activity at 0.1 µM / remaining activity at 0.5 µM: read-out: % Enzyme Activity (relative to DMSO controls)
Text: as §1

[5] = biological target: T4, 363 human kinases (including Aurora A/B/C) (Homo sapiens, UniProt Q96PF2); conditions: TSSK2; for remaining activity at 0.1 µM: 100 nM; for remaining activity at 0.1 µM / remaining activity at 0.5 µM: read-out: % Enzyme Activity (relative to DMSO controls)
T4 sequence (Q96PF2 1-358): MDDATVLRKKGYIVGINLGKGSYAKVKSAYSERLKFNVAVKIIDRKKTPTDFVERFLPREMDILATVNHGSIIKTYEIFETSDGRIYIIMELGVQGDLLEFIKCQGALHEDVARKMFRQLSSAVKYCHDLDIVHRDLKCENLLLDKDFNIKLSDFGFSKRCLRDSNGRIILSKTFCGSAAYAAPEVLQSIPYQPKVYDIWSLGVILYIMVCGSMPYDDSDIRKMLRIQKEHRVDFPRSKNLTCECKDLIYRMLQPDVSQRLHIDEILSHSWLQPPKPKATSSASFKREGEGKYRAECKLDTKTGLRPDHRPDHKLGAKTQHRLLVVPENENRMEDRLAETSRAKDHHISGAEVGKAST
Text: as §1

Sequence of 363 human kinases (including Aurora A/B/C) (Homo sapiens, UniProt Q8NEV4) (Q8NEV4 whole entry): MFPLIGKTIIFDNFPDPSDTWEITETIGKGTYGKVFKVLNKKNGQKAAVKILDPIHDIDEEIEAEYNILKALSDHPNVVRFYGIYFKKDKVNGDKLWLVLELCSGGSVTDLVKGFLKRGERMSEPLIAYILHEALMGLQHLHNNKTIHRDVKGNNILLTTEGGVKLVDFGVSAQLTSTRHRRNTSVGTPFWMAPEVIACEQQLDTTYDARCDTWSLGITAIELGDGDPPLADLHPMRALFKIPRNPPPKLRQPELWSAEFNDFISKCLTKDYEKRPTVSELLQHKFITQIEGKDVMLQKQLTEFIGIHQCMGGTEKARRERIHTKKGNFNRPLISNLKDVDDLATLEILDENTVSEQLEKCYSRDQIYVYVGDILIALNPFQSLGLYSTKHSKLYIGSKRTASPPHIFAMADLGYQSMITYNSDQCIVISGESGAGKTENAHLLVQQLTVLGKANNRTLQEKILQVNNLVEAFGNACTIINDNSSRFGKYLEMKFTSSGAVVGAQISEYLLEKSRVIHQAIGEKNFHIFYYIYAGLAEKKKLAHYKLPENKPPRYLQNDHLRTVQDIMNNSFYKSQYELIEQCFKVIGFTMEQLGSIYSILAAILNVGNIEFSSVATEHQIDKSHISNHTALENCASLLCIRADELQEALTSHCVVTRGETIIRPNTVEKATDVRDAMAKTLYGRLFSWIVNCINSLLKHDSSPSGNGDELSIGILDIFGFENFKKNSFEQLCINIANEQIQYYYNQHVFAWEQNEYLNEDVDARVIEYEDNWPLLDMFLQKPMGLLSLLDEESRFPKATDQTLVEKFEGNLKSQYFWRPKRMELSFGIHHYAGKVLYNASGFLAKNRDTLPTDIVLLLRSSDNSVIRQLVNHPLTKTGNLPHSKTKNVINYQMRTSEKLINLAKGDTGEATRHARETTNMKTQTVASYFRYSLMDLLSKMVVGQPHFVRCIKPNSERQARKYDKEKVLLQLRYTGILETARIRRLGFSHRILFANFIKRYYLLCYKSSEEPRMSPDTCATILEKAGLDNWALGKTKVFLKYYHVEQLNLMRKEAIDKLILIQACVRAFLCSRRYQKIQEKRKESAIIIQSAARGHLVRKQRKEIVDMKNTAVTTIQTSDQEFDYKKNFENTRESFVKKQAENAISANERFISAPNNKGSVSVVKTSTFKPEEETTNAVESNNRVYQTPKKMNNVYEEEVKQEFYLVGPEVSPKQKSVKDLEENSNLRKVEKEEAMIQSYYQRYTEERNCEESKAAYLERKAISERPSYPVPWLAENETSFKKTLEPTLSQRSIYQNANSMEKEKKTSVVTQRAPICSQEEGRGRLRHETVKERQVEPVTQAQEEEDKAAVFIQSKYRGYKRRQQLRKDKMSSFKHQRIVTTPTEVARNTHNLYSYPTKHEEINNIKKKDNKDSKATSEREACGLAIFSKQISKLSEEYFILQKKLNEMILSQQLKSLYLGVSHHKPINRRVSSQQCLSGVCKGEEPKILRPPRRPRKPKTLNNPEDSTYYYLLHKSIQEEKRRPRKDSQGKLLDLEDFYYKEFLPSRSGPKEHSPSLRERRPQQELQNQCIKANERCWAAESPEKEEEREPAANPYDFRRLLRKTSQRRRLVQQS

SMILES | remaining activity at 0.1 µM [1] [%] | remaining activity at 0.1 µM [2] [%] | remaining activity at 0.1 µM [3] [%] | remaining activity at 0.1 µM [4] [%] | remaining activity at 0.1 µM [5] [%] | remaining activity at 0.5 µM ([1]; 500 nM) [%] | remaining activity at 0.5 µM ([2]; 500 nM) [%] | remaining activity at 0.5 µM ([3]; 500 nM) [%] | remaining activity at 0.5 µM ([4]; 500 nM) [%] | remaining activity at 0.5 µM ([5]; 500 nM) [%] | % Enzyme Activity (relative to DMSO controls) ([1]; 500 nM) [%] | % Enzyme Activity (relative to DMSO controls) ([2]; 500 nM) [%] | % Enzyme Activity (relative to DMSO controls) ([3]; 500 nM) [%] | % Enzyme Activity (relative to DMSO controls) ([4]; 500 nM) [%] | % Enzyme Activity (relative to DMSO controls) ([5]; 500 nM) [%]
CCn1cc(-c2ccnc3[nH]c(-c4cccc(CN(C)C)c4)cc23)c(-c2ccc(NC(=O)N(C)C)cc2)n1 [GSK1070916] | 97.1 | 95.3 | 98.2 | 92.9 | 99.9 |  |  |  |  |  |  |  |  |  | 
O=C(O)[C@]1(Cc2cccc(Nc3nccs3)n2)CC[C@@H](Oc2cccc(Cl)c2F)CC1 [MK-5108] | 59.4 | 99.4 | 101 | 90.8 | 103 | 32 | 93.6 | 101 | 131 | 91.5 |  |  |  |  | 
O=C(c1cccc(Cl)c1F)N1CCN(Cc2cccc(Nc3nccs3)n2)CC1 [MK-8745] |  |  |  |  |  | 81.8 | 89.1 | 101 | 71.2 | 94.7 | 80.85 | 88.59 | 99.18 | 66.28 | 93.76
